Results taken from ChEMBL document CHEMBL4251622, “Design, synthesis, and biological evaluation of polo-like kinase 1/eukaryotic elongation factor 2 kinase (PLK1/EEF2K) dual inhibitors for regulating breast cancer cells apoptosis and autophagy” (Eur J Med Chem, 2018).
Activity calls are given as the source filed them. No cut-off for these calls is given here.

What was measured:
[1] = target: Serine/threonine-protein kinase Nek1 (Homo sapiens) (UniProt Q96PY6); assay: Inhibition of wild-type human partial length NEK1 (M1 to K278 residues) expressed in bacterial expression system assessed as residual activity at 1 uM by Kinomescan method relative to control
[2] = target: MAP kinase-interacting serine/threonine-protein kinase 1 (Homo sapiens) (UniProt Q9BUB5); assay: Inhibition of wild-type human full length MKNK1 (M1 to L424 residues) expressed in mammalian expression system assessed as residual activity at 1 uM by Kinomescan method relative to control
BT-483 [3] = assay: Induction of apoptosis in human BT-483 cells assessed as necrotic cells at 5 uM by Annexin V-FITC/propidium iodide staining based flow cytometry (reference value: 0.18%); format: functional
[4] = target: Cyclin-dependent kinase 7 (Homo sapiens) (UniProt P50613); assay: Inhibition of wild-type human full length CDK7 (M1 to L344 residues) expressed in mammalian expression system assessed as residual activity at 1 uM by Kinomescan method relative to control
[5] = target: Dual specificity mitogen-activated protein kinase kinase 1 (Homo sapiens) (UniProt Q02750); assay: Inhibition of wild-type human full length MEK1 (M1 to V393 residues) expressed in mammalian expression system assessed as residual activity at 1 uM by Kinomescan method relative to control
Dual specificity mitogen-activated protein kinase kinase 1 (Homo sapiens), sequence (Q02750 whole entry, the tested form may be a part): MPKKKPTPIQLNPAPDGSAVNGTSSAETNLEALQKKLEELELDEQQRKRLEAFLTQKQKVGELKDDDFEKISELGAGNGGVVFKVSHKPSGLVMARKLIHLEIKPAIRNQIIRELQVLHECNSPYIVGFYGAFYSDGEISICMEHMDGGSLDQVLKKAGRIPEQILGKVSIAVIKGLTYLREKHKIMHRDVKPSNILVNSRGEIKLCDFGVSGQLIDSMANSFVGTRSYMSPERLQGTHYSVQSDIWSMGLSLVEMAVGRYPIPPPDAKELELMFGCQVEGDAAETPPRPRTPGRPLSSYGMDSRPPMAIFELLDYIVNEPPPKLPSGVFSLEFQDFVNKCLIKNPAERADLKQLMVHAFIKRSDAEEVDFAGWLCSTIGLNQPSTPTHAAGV

[6] = target: Mitogen-activated protein kinase 14 (Homo sapiens) (UniProt Q16539); assay: Inhibition of wild-type human full length p38-alpha (M1 to S360 residues) expressed in bacterial expression system assessed as residual activity at 1 uM by Kinomescan method relative to control
BT-483 [7] = assay: Effect on Fas protein expression in human BT-483 cells at 5 to 10 uM by Western blot analysis; format: functional, cell-based
[8] = target: Mitogen-activated protein kinase 10 (Homo sapiens) (UniProt P53779); assay: Inhibition of wild-type human partial length JNK3 (V28 to Q422 residues) expressed in mammalian expression system assessed as residual activity at 1 uM by Kinomescan method relative to control
Mitogen-activated protein kinase 10 (Homo sapiens), sequence (P53779 whole entry, the tested form may be a part): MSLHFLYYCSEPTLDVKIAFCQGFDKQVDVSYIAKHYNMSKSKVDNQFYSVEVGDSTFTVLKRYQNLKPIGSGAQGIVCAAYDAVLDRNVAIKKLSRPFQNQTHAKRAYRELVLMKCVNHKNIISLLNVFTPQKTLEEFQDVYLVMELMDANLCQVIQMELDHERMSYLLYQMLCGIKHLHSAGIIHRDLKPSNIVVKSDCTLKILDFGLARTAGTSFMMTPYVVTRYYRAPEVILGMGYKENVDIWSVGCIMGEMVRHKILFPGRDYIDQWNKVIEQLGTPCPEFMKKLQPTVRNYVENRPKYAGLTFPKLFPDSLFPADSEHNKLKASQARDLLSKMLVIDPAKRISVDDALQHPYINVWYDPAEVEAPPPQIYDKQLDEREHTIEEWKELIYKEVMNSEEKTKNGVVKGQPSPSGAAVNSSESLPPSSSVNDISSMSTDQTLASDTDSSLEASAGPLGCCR

BT-483 [9] = assay: Effect on total EEF2K protein expression in human BT-483 cells at 5 to 10 uM by Western blot analysis; format: ADME, cell-based; settings: bt-483, 10 µM
[10] = tested on: Mast/stem cell growth factor receptor Kit (Homo sapiens), P10721 [V559D,T670I]; assay: Inhibition of human partial length KIT V559D/T670I double mutant (Y545 to D952 residues) expressed in bacterial expression system assessed as residual activity at 1 uM by Kinomescan method relative to control
[11] = target: Mitogen-activated protein kinase 8 (Homo sapiens) (UniProt P45983); assay: Inhibition of wild-type human full length JNK1 (M1 to Q384 residues) expressed in mammalian expression system assessed as residual activity at 1 uM by Kinomescan method relative to control
[12] = target: Mitogen-activated protein kinase kinase kinase 9 (Homo sapiens) (UniProt P80192); assay: Inhibition of wild-type human partial length MLK1 (V88 to W426 residues) expressed in bacterial expression system assessed as residual activity at 1 uM by Kinomescan method relative to control
Mitogen-activated protein kinase kinase kinase 9 (Homo sapiens), sequence (P80192 whole entry, looked up, the tested form may be a part): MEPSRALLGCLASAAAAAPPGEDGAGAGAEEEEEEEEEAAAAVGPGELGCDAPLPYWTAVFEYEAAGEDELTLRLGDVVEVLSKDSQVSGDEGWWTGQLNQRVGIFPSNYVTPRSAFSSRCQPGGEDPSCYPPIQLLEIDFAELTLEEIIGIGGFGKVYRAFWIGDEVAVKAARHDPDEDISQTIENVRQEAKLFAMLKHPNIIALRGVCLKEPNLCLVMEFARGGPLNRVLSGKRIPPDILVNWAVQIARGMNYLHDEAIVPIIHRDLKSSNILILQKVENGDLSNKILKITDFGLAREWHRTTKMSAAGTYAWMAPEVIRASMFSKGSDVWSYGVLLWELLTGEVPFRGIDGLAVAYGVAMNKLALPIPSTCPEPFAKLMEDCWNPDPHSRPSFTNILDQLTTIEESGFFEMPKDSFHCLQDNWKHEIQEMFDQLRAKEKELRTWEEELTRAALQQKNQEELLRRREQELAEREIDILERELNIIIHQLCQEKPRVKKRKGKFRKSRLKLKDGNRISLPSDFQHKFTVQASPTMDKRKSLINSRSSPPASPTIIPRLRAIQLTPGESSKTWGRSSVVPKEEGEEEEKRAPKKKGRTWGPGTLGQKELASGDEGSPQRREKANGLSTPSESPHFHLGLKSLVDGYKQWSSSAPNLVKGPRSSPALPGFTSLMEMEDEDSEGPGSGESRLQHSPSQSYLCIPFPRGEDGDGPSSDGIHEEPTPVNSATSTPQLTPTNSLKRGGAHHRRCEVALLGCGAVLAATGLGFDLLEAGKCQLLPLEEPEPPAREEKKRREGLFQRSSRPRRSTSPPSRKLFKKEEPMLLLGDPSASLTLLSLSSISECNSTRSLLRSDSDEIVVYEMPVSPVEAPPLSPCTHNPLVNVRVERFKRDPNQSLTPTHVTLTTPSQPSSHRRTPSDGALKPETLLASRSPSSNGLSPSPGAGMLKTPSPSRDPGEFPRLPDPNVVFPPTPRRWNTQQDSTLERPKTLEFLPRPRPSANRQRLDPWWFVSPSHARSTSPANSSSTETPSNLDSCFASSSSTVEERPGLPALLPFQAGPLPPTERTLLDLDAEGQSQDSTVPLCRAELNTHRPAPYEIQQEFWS

BT-483 [13] = assay: Effect on total EEF2 protein expression in human BT-483 cells at 5 to 10 uM by Western blot analysis; format: ADME, cell-based; settings: bt-483, 10 µM
[14] = target: Rho-associated protein kinase 1 (Homo sapiens) (UniProt Q13464); assay: Inhibition of wild-type human partial length ROCK1 (M1 to R415 residues) expressed in mammalian expression system assessed as residual activity at 1 uM by Kinomescan method relative to control
[15] = tested on: Serine/threonine-protein kinase B-raf (Homo sapiens), P15056 [V600E]; assay: Inhibition of human partial length BRAF V600E mutant (S429 to E741 residues) expressed in mammalian expression system assessed as residual activity at 1 uM by Kinomescan method relative to control
[16] = target: MAP kinase-activated protein kinase 2 (Homo sapiens) (UniProt P49137); assay: Inhibition of wild-type human partial length MAPKAPK2 (V48 to D345 residues) expressed in bacterial expression system assessed as residual activity at 1 uM by Kinomescan method relative to control
[17] = target: Tyrosine-protein kinase JAK2 (Homo sapiens) (UniProt O60674); assay: Inhibition of wild-type human partial length JAK2 JH1 catalytic domain (A829 to G1132 residues) expressed in mammalian expression system assessed as residual activity at 1 uM by Kinomescan method relative to control
Tyrosine-protein kinase JAK2 (Homo sapiens), sequence (O60674 whole entry, the tested form may be a part): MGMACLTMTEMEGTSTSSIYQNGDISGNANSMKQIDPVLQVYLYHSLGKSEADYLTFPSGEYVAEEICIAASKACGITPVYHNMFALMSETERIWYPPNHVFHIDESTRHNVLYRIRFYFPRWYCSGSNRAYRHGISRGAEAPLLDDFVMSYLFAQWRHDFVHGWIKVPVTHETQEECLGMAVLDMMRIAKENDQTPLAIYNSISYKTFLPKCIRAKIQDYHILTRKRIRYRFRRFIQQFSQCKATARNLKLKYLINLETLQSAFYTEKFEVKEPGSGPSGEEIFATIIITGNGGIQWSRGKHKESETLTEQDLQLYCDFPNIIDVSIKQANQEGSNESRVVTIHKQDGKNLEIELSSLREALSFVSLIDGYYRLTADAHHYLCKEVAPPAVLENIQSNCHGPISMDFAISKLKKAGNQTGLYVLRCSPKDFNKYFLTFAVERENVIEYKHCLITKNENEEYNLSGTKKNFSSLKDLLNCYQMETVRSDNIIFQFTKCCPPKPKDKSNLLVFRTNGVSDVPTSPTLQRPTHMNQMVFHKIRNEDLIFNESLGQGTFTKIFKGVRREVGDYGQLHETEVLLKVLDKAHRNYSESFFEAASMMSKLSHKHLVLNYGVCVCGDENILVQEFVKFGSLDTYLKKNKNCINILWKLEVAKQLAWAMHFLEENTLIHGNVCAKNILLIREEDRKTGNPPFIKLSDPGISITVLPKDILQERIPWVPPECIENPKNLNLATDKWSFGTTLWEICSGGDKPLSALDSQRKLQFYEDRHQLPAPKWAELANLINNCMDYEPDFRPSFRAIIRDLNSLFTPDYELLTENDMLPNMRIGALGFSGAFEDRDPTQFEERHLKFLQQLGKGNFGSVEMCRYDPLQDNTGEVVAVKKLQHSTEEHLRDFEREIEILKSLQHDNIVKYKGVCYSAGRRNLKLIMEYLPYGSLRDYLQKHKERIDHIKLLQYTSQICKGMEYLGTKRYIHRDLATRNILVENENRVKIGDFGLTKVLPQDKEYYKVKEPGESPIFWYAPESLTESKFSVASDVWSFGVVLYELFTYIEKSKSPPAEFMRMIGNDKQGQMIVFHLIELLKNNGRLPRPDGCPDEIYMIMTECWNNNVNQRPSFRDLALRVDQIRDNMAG

BT-483 [18] = assay: Induction of apoptosis in human BT-483 cells assessed as apoptotic nuclear fragment formation at 5 uM after 24 hrs by fluorescence microscopic method; format: functional, cell-based
[19] = target: Inhibitor of nuclear factor kappa-B kinase subunit alpha (Homo sapiens) (UniProt O15111); assay: Inhibition of wild-type human full length IKK-alpha (M1 to E745 residues) expressed in mammalian expression system assessed as residual activity at 1 uM by Kinomescan method relative to control
[20] = target: Serine/threonine-protein kinase TNNI3K (Homo sapiens) (UniProt Q59H18); assay: Inhibition of wild-type human full length TNNI3K (M1 to S835 residues) expressed in bacterial expression system assessed as residual activity at 1 uM by Kinomescan method relative to control
[21] = target: Tyrosine-protein kinase JAK3 (Homo sapiens) (UniProt P52333); assay: Inhibition of wild-type human partial length JAK3 JH1 catalytic domain (I781 to S1124 residues) expressed in mammalian expression system assessed as residual activity at 1 uM by Kinomescan method relative to control
Tyrosine-protein kinase JAK3 (Homo sapiens), sequence (P52333 whole entry, the tested form may be a part): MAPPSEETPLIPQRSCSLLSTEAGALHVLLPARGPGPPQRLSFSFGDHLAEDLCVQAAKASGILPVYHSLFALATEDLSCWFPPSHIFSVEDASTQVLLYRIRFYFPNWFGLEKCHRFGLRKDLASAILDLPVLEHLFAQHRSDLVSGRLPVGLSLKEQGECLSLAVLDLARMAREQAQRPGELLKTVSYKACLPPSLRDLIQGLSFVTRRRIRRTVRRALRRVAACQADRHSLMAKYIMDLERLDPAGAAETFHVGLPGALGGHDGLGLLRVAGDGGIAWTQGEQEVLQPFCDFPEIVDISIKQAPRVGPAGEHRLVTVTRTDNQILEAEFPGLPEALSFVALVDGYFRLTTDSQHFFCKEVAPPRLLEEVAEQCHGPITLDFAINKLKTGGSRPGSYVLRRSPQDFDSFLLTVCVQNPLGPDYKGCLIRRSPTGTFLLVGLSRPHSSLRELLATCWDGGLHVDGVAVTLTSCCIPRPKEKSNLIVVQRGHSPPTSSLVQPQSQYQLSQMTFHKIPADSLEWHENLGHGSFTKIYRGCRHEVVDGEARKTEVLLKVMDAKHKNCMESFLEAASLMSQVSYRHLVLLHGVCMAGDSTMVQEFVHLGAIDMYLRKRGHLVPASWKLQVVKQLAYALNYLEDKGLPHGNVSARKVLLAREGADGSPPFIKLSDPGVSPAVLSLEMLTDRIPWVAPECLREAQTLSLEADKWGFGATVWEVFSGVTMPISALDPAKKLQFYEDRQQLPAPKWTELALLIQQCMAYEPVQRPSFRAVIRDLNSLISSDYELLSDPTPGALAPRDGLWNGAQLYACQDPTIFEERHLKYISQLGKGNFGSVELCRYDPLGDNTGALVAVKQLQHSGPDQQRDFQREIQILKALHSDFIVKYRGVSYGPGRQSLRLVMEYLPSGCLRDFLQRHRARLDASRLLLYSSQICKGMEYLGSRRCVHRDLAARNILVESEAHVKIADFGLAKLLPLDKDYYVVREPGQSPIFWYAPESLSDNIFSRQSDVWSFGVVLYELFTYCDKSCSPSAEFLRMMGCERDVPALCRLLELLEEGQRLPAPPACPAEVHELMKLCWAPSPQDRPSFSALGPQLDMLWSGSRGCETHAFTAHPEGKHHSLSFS

[22] = target: Serine/threonine-protein kinase pim-3 (Homo sapiens) (UniProt Q86V86); assay: Inhibition of wild-type human partial length PIM3 (G16 to A317 residues) expressed in bacterial expression system assessed as residual activity at 1 uM by Kinomescan method relative to control
[23] = target: Serine/threonine-protein kinase 32C (Homo sapiens) (UniProt Q86UX6); assay: Inhibition of wild-type human partial length YANK3 (M68 to G486 residues) expressed in bacterial expression system assessed as residual activity at 1 uM by Kinomescan method relative to control
[24] = target: Receptor tyrosine-protein kinase erbB-4 (Homo sapiens) (UniProt Q15303); assay: Inhibition of wild-type human partial length ERBB4 (L690 to K994 residues) expressed in bacterial expression system assessed as residual activity at 1 uM by Kinomescan method relative to control
BT-483 [25] = assay: Effect on total PLK1 protein expression in human BT-483 cells at 5 to 10 uM by Western blot analysis; format: ADME, cell-based; settings: bt-483, 10 µM
[26] = target: 3-phosphoinositide-dependent protein kinase 1 (Homo sapiens) (UniProt O15530); assay: Inhibition of wild-type human full length PDPK1 (M1 to Q556 residues) expressed in bacterial expression system assessed as residual activity at 1 uM by Kinomescan method relative to control
3-phosphoinositide-dependent protein kinase 1 (Homo sapiens), sequence (O15530 whole entry, the tested form may be a part): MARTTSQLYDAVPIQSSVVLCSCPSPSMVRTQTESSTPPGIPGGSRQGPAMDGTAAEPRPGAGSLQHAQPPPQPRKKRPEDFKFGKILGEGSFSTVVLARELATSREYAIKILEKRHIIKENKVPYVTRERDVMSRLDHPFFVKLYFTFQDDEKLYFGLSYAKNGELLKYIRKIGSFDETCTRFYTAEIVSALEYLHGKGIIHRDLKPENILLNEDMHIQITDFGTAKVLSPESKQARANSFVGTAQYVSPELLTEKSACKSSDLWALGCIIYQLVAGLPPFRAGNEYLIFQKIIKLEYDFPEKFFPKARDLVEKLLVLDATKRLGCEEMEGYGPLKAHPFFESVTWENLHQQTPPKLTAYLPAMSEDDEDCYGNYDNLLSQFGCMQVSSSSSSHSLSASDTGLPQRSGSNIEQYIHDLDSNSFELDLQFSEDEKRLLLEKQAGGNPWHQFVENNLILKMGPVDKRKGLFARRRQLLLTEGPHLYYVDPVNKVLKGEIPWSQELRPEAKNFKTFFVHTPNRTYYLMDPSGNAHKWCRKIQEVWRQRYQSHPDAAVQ

[27] = target: Platelet-derived growth factor receptor alpha (Homo sapiens) (UniProt P16234); assay: Inhibition of wild-type human partial length PDGFRA (V575 to D1002 residues) expressed in mammalian expression system assessed as residual activity at 1 uM by Kinomescan method relative to control

SMILES: CCNc1cc(-c2ccc(NC(=O)Nc3cccc(Cl)c3)cc2C(F)(F)F)ccn1
- Activity [1]: 60%
- Activity [2]: 81%
- Activity (BT-483 [3]): 0.45%
- Activity [4]: 85%
- Activity [5]: 96%
- Activity [6]: 84%
- Activity (BT-483 [7]): inactive
- Activity [8]: 64%
- Activity (BT-483 [9]): Non-Toxic
- Activity [10]: 93%
- Activity [11]: 75%
- Activity [12]: 67%
- Activity (BT-483 [13]): Non-Toxic
- Activity [14]: 70%
- Activity [15]: 88%
- Activity [16]: 95%
- Activity [17]: 86%
- Activity (BT-483 [18]): Active
- Activity [19]: 95%
- Activity [20]: 70%
- Activity [21]: 98%
- Activity [22]: 100%
- Activity [23]: 73%
- Activity [24]: 92%
- Activity (BT-483 [25]): Non-Toxic
- Activity [26]: 63%
- Activity [27]: 79%
